Patent publication US20160046618A1, “Cyclopropyl Fused Thiazin-2-Amine Compounds as Beta-Secretase Inhibitors and Methods of Use” (AMGEN INC., priority 2014, published 2016)
Where two headings read alike, the source gives them in different places.

Assays:
[1] = molecular target: human recombinant BACE1 (Homo sapiens (Human), UniProt P56817); assay: In vitro enzymatic BACE1 FRET assay; assay type: biochemical; settings: read-out: IC50 IP (μM) BACE1 enzyme
Procedure, shortened: (§1)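 Read-out: dequenched fluorescence, excitation 488 nm, emission 590 nm, after proteolysis of a quenched peptide spanning the BACE cleavage site. Substrate at 50 nM, 1 h incubation, termination by Tris addition to neutral pH.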

[2] = molecular target: human recombinant BACE2 (Homo sapiens (Human), UniProt Q9Y5Z0); assay: In vitro enzymatic BACE2 FRET assay; assay type: biochemical; settings: read-out: IC50 IP (μM) BACE2 enzyme
Procedure, shortened: as §1

[3] = system: Aβ40 in conditioned medium of cells stably expressing Amyloid Precursor Protein (APP); assay: In vitro BACE-1 cell-based assay (Aβ40 sandwich ELISA); settings: read-out: IC50 IP (μM) BACE1 cell
Procedure, shortened: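 Read-out: time-resolved fluorescence (Streptavidin-Europium) of Aβ40 captured by pAb40 and detected with biotinylated 6E10 from supernatants of APP-stable cells. Cells were exposed to compound for 24 h, 10-point dose response, top dose 100 μM or 10 μM, 0.1% DMSO. IC50 fitted to percent of control.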

[4] = molecular target: Recombinant Cat D (Homo sapiens (Human), UniProt P07339); assay: In vitro enzymatic Cathepsin D (Cat D) FRET assay; assay type: biochemical; settings: read-out: IC50 IP (μM) CatD
Procedure, shortened: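 Cleavage of a 20 nM fluorophore/quencher peptide by CHO-expressed recombinant Cat D proceeded for one hour at pH 3.5 (0.05 M citrate, 5 mM CHAPS, 10% DMSO final). Tris addition neutralized the pH to end the reaction. Fluorescence was then measured (ex 500 nm/em 580 nm).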

human recombinant BACE1, sequence (P56817 46-501): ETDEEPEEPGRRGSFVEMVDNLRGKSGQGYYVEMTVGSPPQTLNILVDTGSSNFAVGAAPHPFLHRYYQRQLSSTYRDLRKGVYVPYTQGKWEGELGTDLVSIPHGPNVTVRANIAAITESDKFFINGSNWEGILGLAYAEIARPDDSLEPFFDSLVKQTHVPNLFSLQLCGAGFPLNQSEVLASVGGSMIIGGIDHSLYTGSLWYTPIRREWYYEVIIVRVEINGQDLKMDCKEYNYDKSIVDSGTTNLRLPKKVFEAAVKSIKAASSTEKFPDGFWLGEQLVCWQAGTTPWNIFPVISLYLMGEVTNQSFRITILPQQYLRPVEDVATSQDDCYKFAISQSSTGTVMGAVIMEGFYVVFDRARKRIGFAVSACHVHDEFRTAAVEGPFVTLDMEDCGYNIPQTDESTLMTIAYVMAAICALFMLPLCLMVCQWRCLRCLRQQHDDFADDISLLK
human recombinant BACE2, sequence (Q9Y5Z0 63-518): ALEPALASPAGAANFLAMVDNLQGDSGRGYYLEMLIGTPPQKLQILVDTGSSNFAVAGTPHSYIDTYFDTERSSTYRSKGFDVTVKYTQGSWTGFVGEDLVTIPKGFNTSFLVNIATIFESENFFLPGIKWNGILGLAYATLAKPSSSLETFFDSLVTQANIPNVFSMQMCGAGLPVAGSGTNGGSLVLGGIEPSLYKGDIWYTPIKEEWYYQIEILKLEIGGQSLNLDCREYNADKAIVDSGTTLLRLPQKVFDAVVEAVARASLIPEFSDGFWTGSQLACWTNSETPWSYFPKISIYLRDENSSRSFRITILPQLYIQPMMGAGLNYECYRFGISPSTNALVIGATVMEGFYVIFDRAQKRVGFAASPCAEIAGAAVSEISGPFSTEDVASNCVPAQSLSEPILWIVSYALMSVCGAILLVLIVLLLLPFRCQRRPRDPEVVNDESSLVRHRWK
Recombinant Cat D, sequence (P07339 65-412): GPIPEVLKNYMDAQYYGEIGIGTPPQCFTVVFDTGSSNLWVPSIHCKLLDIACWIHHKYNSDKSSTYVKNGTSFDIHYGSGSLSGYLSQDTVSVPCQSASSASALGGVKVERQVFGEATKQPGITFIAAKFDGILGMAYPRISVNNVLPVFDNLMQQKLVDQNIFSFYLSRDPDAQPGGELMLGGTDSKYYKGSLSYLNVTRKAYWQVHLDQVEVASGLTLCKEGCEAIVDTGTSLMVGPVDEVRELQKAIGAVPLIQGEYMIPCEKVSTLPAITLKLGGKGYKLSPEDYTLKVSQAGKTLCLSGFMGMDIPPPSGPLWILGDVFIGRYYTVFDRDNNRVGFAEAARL

Row | Compound | IC50 ([1]; BACE1 FRET enzyme assay) [µM] | IC50 ([2]; BACE2 FRET enzyme assay) [µM] | IC50 ([3]; BACE1 cell-based assay) [µM] | IC50 ([4]; Cathepsin D FRET enzyme assay) [µM] | IC50 [1] [µM] | IC50 [2] [µM] | IC50 [3] [µM] | IC50 [4] [µM]
1 | Cc1cc(OC(F)F)cnc1C(=O)Nc1cc(F)c(F)c([C@@]2(CF)N=C(N)S[C@H]3C[C@H]32)c1 [Example 86, N-(3-((1S,5S,6S)-3-amino-5-(fluoromethyl)-2-thia-4-azabicyclo[4.1.0]hept-3-en-5-yl)-4,5-difluorophenyl)-5-(difluoromethoxy)-3-methyl-2-pyridinecarboxamide] | 0.00763 | 0.0206 | 0.0501 | 715 | – | – | – | –
2 | COc1cnc2c(Nc3cc(F)c(F)c([C@@]4(C)N=C(N)S[C@@]5(CO)C[C@H]54)c3)nccc2c1 [Example 89, ((1S,5S,6S)-3-amino-5-(2,3-difluoro-5-((3-methoxy-1,7-naphthyridin-8-yl)amino)phenyl)-5-methyl-2-thia-4-azabicyclo[4.1.0]hept-3-en-1-yl)methanol] | 0.0228 | 0.0364 | 0.0198 | > 400 | – | – | – | –
3 | COC[C@@]12C[C@@H]1[C@@](CF)(c1cc(Nc3nccc4cc(C#N)cnc34)cc(F)c1F)N=C(N)S2 [Example 90, 8-((3-((1R,5S,6R)-3-amino-5-(fluoromethyl)-1-(methoxymethyl)-2-thia-4-azabicyclo[4.1.0]hept-3-en-5-yl)-4,5-difluorophenyl)amino)-1,7-naphthyridine-3-carbonitrile] | 0.00682 | 0.0112 | 0.128 | 34.1 | – | – | – | –
4 | COc1cnc2c(Nc3cc(F)c(F)c([C@@]4(C)N=C(N)S[C@@]5(CO)C[C@H]54)c3)ncc(F)c2c1 [Example 91, ((1S,5S,6S)-3-amino-5-(2,3-difluoro-5-((5-fluoro-3-methoxy-1,7-naphthyridin-8-yl)amino)phenyl)-5-methyl-2-thia-4-azabicyclo[4.1.0]hept-3-en-1-yl)methanol] | 0.00524 | 0.0111 | 0.0256 | 1210 | – | – | – | –
5 | C[C@]1(c2cc(Nc3ncnc4cc(Cl)cnc34)cc(F)c2F)N=C(N)S[C@@]2(CO)C[C@H]21 [Example 92, ((1S,5S,6S)-3-amino-5-(5-((7-chloropyrido[3,2-d]pyrimidin-4-yl)amino)-2,3-difluorophenyl)-5-methyl-2-thia-4-azabicyclo[4.1.0]hept-3-en-1-yl)methanol] | 0.0052 | 0.00373 | 0.0102 | 414 | – | – | – | –
6 | COc1cnc2c(Nc3cc(F)c(F)c([C@@]4(C)N=C(N)S[C@@]5(CO)C[C@H]54)c3)nccc2n1 [Example 93, ((1S,5S,6S)-3-Amino-5-(2,3-difluoro-5-((2-methoxypyrido[3,4-b]pyrazin-5-yl)amino)phenyl)-5-methyl-2-thia-4-azabicyclo[4.1.0]hept-3-en-1-yl)methanol] | 0.01 | 0.0342 | 0.0108 | 1380 | – | – | – | –
7 | Cc1cc(C#N)cnc1C(=O)Nc1cc(F)c(F)c([C@@]2(C)N=C(N)S[C@@]3(C(F)F)C[C@@H]23)c1 [Example 94, N-(3-((1S,5S,6S)-3-amino-1-(difluoromethyl)-5-methyl-2-thia-4-azabicyclo[4.1.0]hept-3-en-5-yl)-4,5-difluorophenyl)-5-cyano-3-methylpicolinamide] | 0.00053 | < 0.00203 | 0.00304 | 559 | – | – | – | –
8 | COC[C@@]12C[C@@H]1[C@@](CF)(c1cc(NC(=O)c3ccc(Cl)cn3)cc(F)c1F)N=C(N)S2 [Example 96, N-(3-((1R,5S,6R)-3-amino-5-(fluoromethyl)-1-(methoxymethyl)-2-thia-4-azabicyclo[4.1.0]hept-3-en-5-yl)-4,5-difluorophenyl)-5-chloro-2-pyridinecarboxamide] | 0.00726 | 0.0024 | 0.0174 | 40.4 | – | – | – | –
9 | N#Cc1cnc2c(Nc3ccc(F)c([C@@]4(CF)N=C(N)S[C@@]5(CF)C[C@H]54)c3)ncnc2c1 [Example 97, 4-((3-((1S,5S,6S)-3-amino-1,5-bis(fluoromethyl)-2-thia-4-azabicyclo[4.1.0]hept-3-en-5-yl)-4-fluorophenyl)amino)pyrido[3,2-d]pyrimidine-7-carbonitrile] | 0.0118 | 0.0632 | 0.0312 | 752 | – | – | – | –
10 | C[C@]1(c2cc(NC(=O)c3ccc(Cl)cn3)cnc2F)N=C(N)S[C@@]2(CF)C[C@H]21 [Example 98, N-(5-((1S,5S,6S)-3-amino-1-(fluoromethyl)-5-methyl-2-thia-4-azabicyclo[4.1.0]hept-3-en-5-yl)-6-fluoropyridin-3-yl)-5-chloropicolinamide] | 0.00665 | 0.0032 | 0.0056 | 3140 | – | – | – | –
11 | COC(=O)[C@]12C[C@H]1[C@@](C)(c1cc(NC(=O)c3ccc(Cl)cn3)cnc1F)N=C(N)S2 [Example 99, (1S,5S,6S)-methyl 3-amino-5-(5-(5-chloropicolinamido)-2-fluoropyridin-3-yl)-5-methyl-2-thia-4-azabicyclo[4.1.0]hept-3-ene-1-carboxylate] | 0.00659 | 0.00824 | 0.0659 | 1130 | – | – | – | –
12 | C[C@]1(c2cc(NC(=O)c3ccc(Cl)cn3)cnc2F)N=C(N)S[C@@]2(CO)C[C@H]21 [Example 100, N-(5-((1S,5S,6S)-3-amino-1-(hydroxymethyl)-5-methyl-2-thia-4-azabicyclo[4.1.0]hept-3-en-5-yl)-6-fluoropyridin-3-yl)-5-chloropicolinamide] | 0.0225 | 0.0038 | 0.0112 | > 400 | – | – | – | –
13 | C[C@]1(c2cc(Nc3ncnc4cc(C#N)cnc34)ccc2F)N=C(N)S[C@@H]2[C@H]1C2(F)F [Example 101, 4-((3-((1R,5S,6R)-3-amino-7,7-difluoro-5-methyl-2-thia-4-azabicyclo[4.1.0]hept-3-en-5-yl)-4-fluorophenyl)amino)pyrido[3,2-d]pyrimidine-7-carbonitrile] | 0.0197 | 0.023 | 0.094 | 720 | – | – | – | –
14 | C#CCOc1cnc(C(=O)Nc2ccc(F)c([C@@]3(C)N=C(N)S[C@@H]4[C@H]3C4(F)F)c2)c(C)n1 [Example 102, N-(3-((1R,5S,6R)-3-amino-7,7-difluoro-5-methyl-2-thia-4-azabicyclo[4.1.0]hept-3-en-5-yl)-4-fluorophenyl)-3-methyl-5-(prop-2-yn-1-yloxy)pyrazine-2-carboxamide] | 0.00433 | 0.019 | 0.058 | 361 | – | – | – | –
15 | C#CCOc1cnc2c(Nc3cnc(F)c([C@@]4(C)N=C(N)S[C@@]5(CF)C[C@H]54)c3)nccc2n1 [Example 601, N-(5-((1S,5S,6S)-3-amino-1-(fluoromethyl)-5-methyl-2-thia-4-azabicyclo[4.1.0]hept-3-en-5-yl)-6-fluoro-3-pyridinyl)-2-(2-propyn-1-yloxy)pyrido[3,4-b]pyrazin-5-amine] | – | – | – | – | 0.000589 | 0.0361 | 0.00235 | 1680
16 | C[C@]1(c2cc(Nc3nccc4nc(OCc5ncco5)cnc34)cnc2F)N=C(N)S[C@@]2(CF)C[C@H]21 [Example 602, N-(5-((1S,5S,6S)-3-amino-1-(fluoromethyl)-5-methyl-2-thia-4-azabicyclo[4.1.0]hept-3-en-5-yl)-6-fluoro-3-pyridinyl)-2-(1,3-oxazol-2-ylmethoxy)pyrido[3,4-b]pyrazin-5-amine] | – | – | – | – | 0.000871 | 0.0371 | 0.00204 | 605
